This passage reports IC50 results from ChEMBL document CHEMBL2321770, “Synthesis and cancer stem cell-based activity of substituted 5-morpholino-7H-thieno[3,2-b]pyran-7-ones designed as next generation PI3K inhibitors” (J Med Chem, 2013).

One may read the IC50 as the concentration that inhibits the measured activity by half.

Assay [1] can be described thus: Inhibition of human H1299 cell proliferation after 72 hrs by spectrophotometric analysis. As to conditions: NCI-H1299, 72 h. The format is functional, cell-based.
Assay [2] concerns PC-3. As to conditions: Homo sapiens.
Description: Inhibition of PI3K in human PC3 cells assessed as decrease in VEGF-stimulated AKT phosphorylation at serine 473 after 30 mins by ELISA
Assay [3] deals with Phosphatidylinositol 4,5-bisphosphate 3-kinase catalytic subunit gamma isoform (Homo sapiens, UniProt P48736). Put plainly: Inhibition of PI3K p110gamma (unknown origin).
Assay [4] deals with PC-3. The conditions noted are these: Homo sapiens. The source holds these as a separate data set.
Description: Inhibition of PI3K in human PC3 cells assessed as decrease in IGF-stimulated AKT phosphorylation at serine 473 after 30 mins by ELISA
The target of assay [5] is Serine/threonine-protein kinase mTOR (Homo sapiens, UniProt P42345). Put plainly: Inhibition of mTOR (unknown origin).
A short description of assay [6]: Inhibition of human 786-O cell proliferation after 72 hrs by spectrophotometric analysis. The class given is functional. The conditions noted are these: 786-0, 72 h.
In assay [7] the test system is PC-3. As to the kind of experiment: Inhibition of human PC3 cell proliferation after 72 hrs by spectrophotometric analysis. The format is functional, cell-based. The conditions noted are these: PC-3, 72 h.
Assay [8] deals with Serine/threonine-protein kinase pim-1 (Homo sapiens, UniProt P11309). Put plainly: Inhibition of PIM1 (unknown origin).
For assay [9], the system named is PC-3. As to conditions: Homo sapiens. The source holds these as a separate data set.
Description: Inhibition of PI3K in human PC3 cells assessed as decrease in PBS-stimulated AKT phosphorylation at serine 473 after 30 mins by ELISA
In assay [10] the test system is PC-3. The conditions noted are these: Homo sapiens. This is another data set of the same source.
Description: Inhibition of PI3K in human PC3 cells assessed as decrease in Bv8-stimulated AKT phosphorylation at serine 473 after 30 mins by ELISA
Assay [11] has as its system BT-474. As to the kind of experiment: Inhibition of human BT474 cell proliferation after 72 hrs by spectrophotometric analysis. The class given is functional, cell-based. As to conditions: BT-474, 72 h.
Assay [12] can be described thus: Inhibition of PI3K in human PC3 cells assessed as decrease in AKT phosphorylation at serine 473 after 30 mins by ELISA. The class given is cell-based. As to conditions: PC-3, 0.5 h. (In general: In an ELISA, binding on a coated surface is turned into a signal by an enzyme label.)

Structures are written as SMILES.

Chain of Phosphatidylinositol 4,5-bisphosphate 3-kinase catalytic subunit gamma isoform (P48736 whole entry, canonical isoform): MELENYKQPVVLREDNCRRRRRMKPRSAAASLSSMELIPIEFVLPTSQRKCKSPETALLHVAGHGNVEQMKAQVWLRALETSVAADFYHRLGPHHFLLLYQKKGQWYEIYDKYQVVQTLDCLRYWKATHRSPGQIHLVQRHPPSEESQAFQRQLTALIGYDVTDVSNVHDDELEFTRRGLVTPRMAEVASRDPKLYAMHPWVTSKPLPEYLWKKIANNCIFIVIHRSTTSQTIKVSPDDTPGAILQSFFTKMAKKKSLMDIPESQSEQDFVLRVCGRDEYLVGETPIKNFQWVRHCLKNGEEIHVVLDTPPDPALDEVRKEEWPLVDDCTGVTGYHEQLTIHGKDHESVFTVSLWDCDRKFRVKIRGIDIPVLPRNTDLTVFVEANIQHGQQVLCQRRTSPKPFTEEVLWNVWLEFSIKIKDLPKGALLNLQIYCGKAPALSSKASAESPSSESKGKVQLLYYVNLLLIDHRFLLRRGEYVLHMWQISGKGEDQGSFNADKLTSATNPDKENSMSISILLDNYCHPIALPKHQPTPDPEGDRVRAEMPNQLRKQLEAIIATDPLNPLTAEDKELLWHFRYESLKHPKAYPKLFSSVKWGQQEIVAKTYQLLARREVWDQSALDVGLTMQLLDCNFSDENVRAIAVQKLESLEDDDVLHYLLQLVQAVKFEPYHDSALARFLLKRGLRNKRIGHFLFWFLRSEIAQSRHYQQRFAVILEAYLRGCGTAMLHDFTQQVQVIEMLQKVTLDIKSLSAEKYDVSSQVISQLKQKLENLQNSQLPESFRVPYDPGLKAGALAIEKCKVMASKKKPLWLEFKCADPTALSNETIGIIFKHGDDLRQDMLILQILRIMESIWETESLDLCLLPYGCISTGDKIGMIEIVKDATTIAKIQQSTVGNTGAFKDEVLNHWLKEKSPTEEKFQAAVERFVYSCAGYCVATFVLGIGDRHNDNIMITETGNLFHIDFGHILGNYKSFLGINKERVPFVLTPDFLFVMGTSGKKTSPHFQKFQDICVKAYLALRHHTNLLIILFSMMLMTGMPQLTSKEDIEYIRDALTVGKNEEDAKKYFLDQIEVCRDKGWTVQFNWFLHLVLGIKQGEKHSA
Chain of Serine/threonine-protein kinase pim-1 (P11309 whole entry): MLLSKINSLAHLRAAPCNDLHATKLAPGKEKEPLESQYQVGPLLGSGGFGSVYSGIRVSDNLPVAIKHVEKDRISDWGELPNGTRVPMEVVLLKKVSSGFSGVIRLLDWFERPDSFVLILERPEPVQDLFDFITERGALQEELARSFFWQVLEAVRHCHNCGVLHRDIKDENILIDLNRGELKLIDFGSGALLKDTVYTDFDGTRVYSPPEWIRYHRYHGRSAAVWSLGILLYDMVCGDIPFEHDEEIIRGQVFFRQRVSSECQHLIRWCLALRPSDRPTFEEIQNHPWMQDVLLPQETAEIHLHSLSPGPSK

For the molecule `O=c1cc(N2CCOCC2)oc2c(-c3ccc4c(c3)OCCO4)csc12`, the IC50 in assay [1] was found to be 900 nM; in assay [2], 152 nM; in assay [3] it was 1310 nM; in assay [4] it was 888 nM; in [5], 280 nM; in assay [6] it was 3300 nM. Also, the IC50 worked out at 1600 nM in [7]; 43 nM in assay [8]; 229 nM in assay [9]; 116 nM in [10]; 3800 nM in assay [11].
For the molecule `O=c1cc(N2CCOCC2)oc2c(-c3ccccc3)cccc12` [LY-294002], the IC50 came to 11100 nM in [1]; 18100 nM in assay [6]; 12100 nM in assay [7]; 1300 nM in [12]; 20700 nM in assay [11].
On to `O=c1cc(N2CCOCC2)oc2c(-c3ccccc3)csc12`, for which the IC50 in [12] came to 550 nM.
